Source: patent US20250268876A1, “TREATMENT OF HIDRADENITIS SUPPURATIVA WITH ORISMILAST” (UNION THERAPEUTICS A/S, priority 2021, published 2025)

What was measured:
in vivo = details: ferret, po
PDE4A4 = PDE4A4 (Homo sapiens, UniProt P27815); test: IMAP fluorescence polarisation PDE4 subtype assay; type: biochemical
Description: The binding reagent complexes with phosphate groups on nucleotide monophosphate generated from cyclic nucleotides (cAMP/cGMP) through phosphodiesterases. With fluorescence polarisation detection, binding causes a change in the rate of the molecular motion of the phosphate bearing molecule, and results in an increase in the fluorescence polarization value observed for the fluorescent label attached to the substrate. […] All assays were performed in 3% (final) DMSO for the IMAP assay.

PDE4A4, sequence (P27815 whole entry): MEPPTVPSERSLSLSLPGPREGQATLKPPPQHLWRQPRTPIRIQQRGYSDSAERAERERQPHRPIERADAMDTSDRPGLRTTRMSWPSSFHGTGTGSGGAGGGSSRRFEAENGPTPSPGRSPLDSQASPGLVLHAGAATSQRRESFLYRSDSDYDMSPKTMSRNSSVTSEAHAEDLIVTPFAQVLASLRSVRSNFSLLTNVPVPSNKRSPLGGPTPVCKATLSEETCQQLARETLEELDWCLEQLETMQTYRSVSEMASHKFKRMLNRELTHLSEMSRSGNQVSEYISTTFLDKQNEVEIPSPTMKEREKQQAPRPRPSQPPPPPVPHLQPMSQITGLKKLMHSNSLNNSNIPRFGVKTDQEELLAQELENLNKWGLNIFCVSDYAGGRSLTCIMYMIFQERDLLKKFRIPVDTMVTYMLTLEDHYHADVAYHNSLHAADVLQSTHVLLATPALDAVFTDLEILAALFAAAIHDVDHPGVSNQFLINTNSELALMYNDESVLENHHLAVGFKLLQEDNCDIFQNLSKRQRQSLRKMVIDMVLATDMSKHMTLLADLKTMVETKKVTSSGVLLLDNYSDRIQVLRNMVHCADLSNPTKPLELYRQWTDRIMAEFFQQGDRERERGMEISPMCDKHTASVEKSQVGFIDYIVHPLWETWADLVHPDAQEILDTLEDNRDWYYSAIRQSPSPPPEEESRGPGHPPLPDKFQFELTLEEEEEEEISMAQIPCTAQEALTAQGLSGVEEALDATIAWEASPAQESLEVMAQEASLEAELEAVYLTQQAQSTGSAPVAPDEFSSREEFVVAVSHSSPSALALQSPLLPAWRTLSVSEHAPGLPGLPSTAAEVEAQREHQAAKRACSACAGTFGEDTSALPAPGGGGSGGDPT

Question: With `O=C(Cc1c(Cl)c[n+]([O-])cc1Cl)c1ccc(OC(F)F)c2c1OC1(CCS(=O)(=O)CC1)O2` [Compound (I), 2-(3,5-Dichloro-1-oxido-pyridine-4-yl)-1-(7-difluoro-methoxy-2′,3′,5′,6′-tetrahydro-spiro[1,3-benzodioxole-2,4′-(4H)-thiopyran-1′,1′-dioxide]-4-yl)ethanone] as the molecule, how does the NOAEL at 3 h (in vivo) read?
Answer: 3 mg/kg

Question: And the inhibition at 0.1 µM (PDE4A4; compound 10^−7 M)?
Answer: 47%

Question: What about the inhibition at 0.01 µM (PDE4A4; compound 10^−8 M) of the same molecule?
Answer: 24%

Question: What about the inhibition at 0.001 µM (PDE4A4; compound 10^−9 M) of the same molecule?
Answer: 0%

Question: And the inhibition at 0.0001 µM (PDE4A4; compound 10^−10 M)?
Answer: 0%
